Measurements: patent US8053473B2, “Antibacterial agent comprising 7, 10-dihydroxy-8(E)-octadecenoic acid” (Kyung Pook National University Industry-Academic …, priority 2007, dated 2011)

Columns and labels:
[1] = system: Staphylococcus aureus KCTC 1621; assay: Antibacterial activity on solid agar medium (clear zone around filter paper); settings: 5 mg/spot, similar level with Bactroban (3 mg Mupirocin), FIG. 5
[2] = system: Listeria monocytogenes ATCC 19111; assay: Antibacterial activity on solid agar medium 2; settings: Gram positive, FIG. 7
[3] = system: Pseudomonas syringae pv. actinidae KACC 10659; type: cell-based; settings: liquid medium; Gram negative; FIG. 8
[4] = system: Bacillus subtillis ATCC 6501; assay: microbe, parasite or virus in culture; type: cell-based; settings: ATCC6501, liquid YPD medium, OD540 up to 24 hours, read-out: minimal inhibitory concentration
[5] = system: Xanthomonas campestris KACC 10490; type: cell-based; settings: liquid medium; Gram negative; FIG. 8
[6] = system: Staphylococcus aureus ATCC 6538; assay: Antibacterial activity on solid agar medium 2; settings: Gram positive, FIG. 7
[7] = system: Escherichia coli ATCC 8739; assay: Antibacterial activity on solid agar medium 2; settings: Gram negative, FIG. 7
[8] = system: Ralstonia solanacearum KACC 10475; assay: microbe, parasite or virus in culture; type: cell-based
[9] = system: Salmonella typhimurium KCTC 2515; assay: Antibacterial activity on solid agar medium (clear zone around filter paper)
[10] = system: Corynebacterium glutamicum KACC 10784; type: cell-based; settings: liquid medium; Gram positive; FIG. 8
[11] = system: Xanthomonas axonopodis pv. citri KACC 10443; assay: Growth inhibition in liquid medium 2; type: cell-based; settings: Gram negative, FIG. 8
[12] = system: Pseudomonas syringae pv. syringae KACC 10361; type: cell-based; settings: liquid medium; Gram negative; FIG. 8
[13] = system: Bacillus subtilis ATCC 6501; assay: Antibacterial activity on solid agar medium 2; settings: Gram positive, FIG. 7
[14] = system: Pseudomonas syringae pv. sesami KACC 10649; type: cell-based; settings: liquid medium; Gram negative; FIG. 8
[15] = system: Erwinia sp. KACC 10207; type: cell-based; settings: liquid medium; Gram negative; FIG. 8
[16] = system: Staphylococcus epidermidis KCTC 1917; assay: Antibacterial activity on solid agar medium 2; settings: Gram positive, FIG. 7

With `CCCCCCCC[C@H](O)/C=C/[C@@H](O)CCCCCC(=O)O` [DOD, 7,10-dihydroxy-8(E)-octadecenoic acid] the “antibacterial activity (clear zone)” value [1] was “high antibacterial activity”, the antibacterial activity [2] was “exhibited antibacterial activity” and the growth inhibitory effect [3] was “had growth inhibitory effect”. The MIC [4] was under 125 µg/mL, the growth inhibitory effect [5] was “had growth inhibitory effect” and the antibacterial activity [6] was “exhibited antibacterial activity”. The antibacterial activity [7] was “exhibited antibacterial activity”, the MIC ([8]; Ralstonia solanacearum, KACC10475, 24 h, read-out: minimal inhibitory concentration) was under 125 µg/mL and the growth inhibitory effect ([8]; liquid medium, Gram negative, FIG. 8) was “had growth inhibitory effect”. For the same compound, the “antibacterial activity (clear zone)” value ([9]; 5 mg/spot, similar level with Bactroban (3 mg Mupirocin), FIG. 5) was “high antibacterial activity”, the antibacterial activity ([9]; Gram negative, FIG. 7) was “exhibited antibacterial activity” and the growth inhibitory effect [10] was “had growth inhibitory effect”. The growth inhibitory effect [11] was “had growth inhibitory effect”, the growth inhibitory effect [12] was “had growth inhibitory effect” and the antibacterial activity [13] was “exhibited antibacterial activity”. For the same compound, the growth inhibitory effect [14] was “had growth inhibitory effect”, the growth inhibitory effect [15] was “had growth inhibitory effect” and the antibacterial activity [16] was “exhibited antibacterial activity”.
